Laboratory results reported in ChEMBL document CHEMBL4265923, “In vitro and in vivo characterization of a novel, highly potent p53-MDM2 inhibitor” (Bioorg Med Chem Lett, 2018).

Assays:
[1] = Intrinsic clearance in rat liver microsomes; type: ADME, microsome
[2] = system: SJSA-1; assay: Antiproliferative activity against human SJSA1 cells after 72 hrs by YO-PRO-1 iodide staining-based assay; type: functional; conditions: SJSA-1, 72 h
[3] = Half life in rat liver microsomes; type: ADME, microsome
[4] = Intrinsic clearance in human liver microsomes; type: ADME, microsome
[5] = Intrinsic clearance in mouse liver microsomes; type: ADME, microsome
[6] = Intrinsic clearance in dog liver microsomes; type: ADME, Canis lupus familiaris, microsome
[7] = system: Rattus norvegicus; assay: Dose normalized Cmax in Sprague-Dawley rat at 3 mg/kg, po; type: ADME, organism-based; conditions: in vivo
[8] = Intrinsic clearance in monkey liver microsomes; type: ADME, Macaca mulatta, microsome; conditions: rhesus monkey
[9] = Half life in human liver microsomes; type: ADME, microsome
[10] = Half life in dog liver microsomes; type: ADME, Canis lupus familiaris, microsome
[11] = system: Rattus norvegicus; assay: Upregulation of PUMA mRNA expression level in po dosed nude rat tumor xenografted with human SJSA1 cells by RT-PCR method
[12] = Tmax in Sprague-Dawley rat at 3 mg/kg, po; type: ADME, organism-based; conditions: in vivo
[13] = Volume of distribution at steady state in Sprague-Dawley rat at 1 mg/kg, iv; type: ADME, organism-based; conditions: in vivo, read-out: Vdss
[14] = Oral bioavailability in Sprague-Dawley rat at 3 mg/kg; type: ADME, organism-based; conditions: in vivo
[15] = system: Rattus norvegicus; assay: Upregulation of p21 mRNA expression level in po dosed nude rat tumor xenografted with human SJSA1 cells by RT-PCR method
[16] = Half life in Sprague-Dawley rat at 1 mg/kg, iv; type: ADME, organism-based; conditions: in vivo
[17] = system: Rattus norvegicus; assay: Toxicity in nude rat xenografted with human SJSA1 cells assessed as increase in body weight at 1 to 5 mg/kg, po qd for 14 days; type: organism-based; conditions: in vivo, 336 h
[18] = system: SJSA-1; assay: Antitumor activity against human SJSA1 cells xenografted in po dosed nude rat assessed as tumor growth inhibition administered once daily for 14 days; type: functional, organism-based
[19] = system: Rattus norvegicus; assay: Dose normalized AUC in Sprague-Dawley rat at 1 mg/kg, iv; type: ADME, organism-based; conditions: in vivo
[20] = Clearance in Sprague-Dawley rat at 1 mg/kg, iv; type: ADME, organism-based; conditions: in vivo
[21] = system: SJSA-1; assay: Antitumor activity against human SJSA1 cells xenografted in nude rat assessed as tumor regression at 3 mg/kg, po qd for 14 days; type: functional
[22] = system: Rattus norvegicus; assay: Upregulation of MDM2 mRNA expression level in po dosed nude rat tumor xenografted with human SJSA1 cells by RT-PCR method
[23] = Tmax in nude rat xenografted with human SJSA1 cells at 1 to 5 mg/kg, po qd; type: ADME, organism-based; conditions: in vivo
[24] = system: Rattus norvegicus; assay: Dose normalized AUC in Sprague-Dawley rat at 3 mg/kg, po; type: ADME, organism-based; conditions: in vivo
[25] = Half life in mouse liver microsomes; type: ADME, microsome
[26] = system: SJSA-1; assay: Antitumor activity against human SJSA1 cells xenografted in nude rat assessed as reduction in tumor volume at 1 mg/kg, po qd for 14 days; type: functional; set-up: scale not given: the % may be the effect or the level left
[27] = system: SJSA-1; assay: Antitumor activity against human SJSA1 cells xenografted in nude rat assessed as tumor regression at 5 mg/kg, po qd for 14 days; type: functional
[28] = Half life in monkey liver microsomes; type: ADME, Macaca mulatta, microsome; conditions: rhesus monkey
[29] = Fraction absorbed of compound by PAMPA; type: ADME

Structure (SMILES): COc1ncc(-c2nc3c(n2C(C)C)[C@@H](c2ccc(Cl)cc2C)N(c2cc(Cl)ccc2C)C3=O)c(OC)n1
- CLint [1]: 25 µL/min/mg
- GI50 [2]: 1000 nM
- half-life [3]: 56 min

Structure (SMILES): COc1cccc(F)c1-c1nc2c(n1C(C)C)C(c1ccc(Cl)cc1C)N(c1cc(Cl)ccc1C)C2=O (racemic)
- CLint [1]: 450 µL/min/mg
- GI50 [2]: 276 nM
- half-life [3]: 3.3 min

Structure (SMILES): COc1ncc(-c2nc3c(n2C(C)C)C(c2ccc(Cl)cc2C)N(c2cc(Cl)ccc2C)C3=O)c(OC)n1 (racemic)
- CLint [1]: 47 µL/min/mg
- GI50 [2]: 26 nM
- half-life [3]: 30 min

Structure (SMILES): COc1ccccc1-c1nc2c(n1C(C)C)[C@H](c1ccc(Cl)cc1C)N(c1cc(Cl)ccc1C)C2=O
- CLint [1]: 385 µL/min/mg
- GI50 [2]: 62 to 64 nM
- half-life [3]: 3.6 min

Structure (SMILES): COc1ncncc1-c1nc2c(n1C(C)C)C(c1ccc(Cl)cc1C)N(c1cc(Cl)ccc1C)C2=O (racemic)
- CLint [1]: 178 µL/min/mg
- GI50 [2]: 111 nM
- half-life [3]: 8 min

Structure (SMILES): COc1ccc(F)cc1-c1nc2c(n1C(C)C)C(c1ccc(Cl)cc1C)N(c1cc(Cl)ccc1C)C2=O (racemic)
- CLint [1]: 460 µL/min/mg
- GI50 [2]: 228 nM
- half-life [3]: 3.3 min

Structure (SMILES): COc1ccccc1-c1cc2c(n1C(C)C)C(c1ccc(Cl)cc1C)N(c1cc(Cl)ccc1C)C2=O (configuration not stated)
- GI50 [2]: 216 nM

Structure (SMILES): COc1ccccc1-n1nc2c(c1C(C)C)[C@H](c1ccc(Cl)cc1C)N(c1cc(Cl)ccc1C)C2=O
- CLH [4]: 115 µL/min/mg
- CLH [5]: 495 µL/min/mg
- CLint [1]: 385 µL/min/mg

Structure (SMILES): COc1ccncc1-c1nc2c(n1C(C)C)[C@H](c1ccc(Cl)cc1C)N(c1cc(Cl)ccc1C)C2=O
- CLint [1]: 117 µL/min/mg
- GI50 [2]: 345 nM
- half-life [3]: 12 min

Structure (SMILES): COc1ccc(-c2nc3c(n2C(C)C)C(c2ccc(Cl)cc2C)N(c2cc(Cl)ccc2C)C3=O)c(OC)n1 (racemic)
- CLint [1]: 69 µL/min/mg
- GI50 [2]: 186 nM
- half-life [3]: 20 min

Structure (SMILES): COc1ncc(-c2nc3c(n2C(C)C)[C@H](c2ccc(Cl)cc2C)N(c2cc(Cl)ccc2C)C3=O)c(OC)n1
- CLH [6]: 35 µL/min/mg
- Cmax/dose [7]: 75 nM/(mg/kg)
- CLH [8]: 20 µL/min/mg
- CLH [4]: 72 µL/min/mg
- CLH [5]: 36 µL/min/mg
- half-life [9]: 17 min
- half-life [10]: 40 min
- Activity [11]: Dose-dependent effect
- Tmax [12]: 120 min
- Vd [13]: 4.4 L/kg
- bioavailability [14]: 67%
- Activity [15]: Dose-dependent effect
- half-life [16]: 108 min
- Activity [17]: Non-Toxic
- CLint [1]: 35 µL/min/mg
- TGI [18]: Dose-dependent effect
- AUC/dose [19]: 1080 nM·h
- clearance [20]: 32 mL/min/kg
- GI50 [2]: 11 nM
- Activity [21]: 32%
- Activity [22]: Dose-dependent effect
- Tmax [23]: 180 min
- half-life [3]: 39 min
- AUC/dose [24]: 719 nM·h
- half-life [25]: 39 min
- Activity [26]: 40%
- Activity [27]: 98%
- half-life [28]: 81 min
- Fa [29]: 99%
